In patent US20240092784A1, “CONDENSED HETEROCYCLIC COMPOUND” (NISSAN CHEMICAL CORPORATION, priority 2020, published 2024):
Structures can show the parent of a compound that is named as a salt.

biological target: human SPR (Homo sapiens (Human), UniProt P35270); experiment: Evaluation Example 2: Measurement of human SPR inhibitory activity (seven concentrations, sepiapterin absorbance at 420 nm); type: biochemical; details: Evaluation Example 2, seven concentrations 0.14 nM to 100 nM, 240 minutes at room temperature, hydrochloride, read-out: IC50
Method in brief: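 Reactions ran 240 min at room temperature in 100 mM Tris-HCl pH 7.5 with 0.01% BSA. They contained tag-cleaved, E. coli-expressed full-length human SPR (diluted to 150 ng/mL), seven compound concentrations from 0.14 to 100 nM, and sepiapterin/NADPH added as a 120 μM/160 μM solution. Inhibition was calculated from sepiapterin absorbance at 420 nm.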

Chain of human SPR (P35270 whole entry): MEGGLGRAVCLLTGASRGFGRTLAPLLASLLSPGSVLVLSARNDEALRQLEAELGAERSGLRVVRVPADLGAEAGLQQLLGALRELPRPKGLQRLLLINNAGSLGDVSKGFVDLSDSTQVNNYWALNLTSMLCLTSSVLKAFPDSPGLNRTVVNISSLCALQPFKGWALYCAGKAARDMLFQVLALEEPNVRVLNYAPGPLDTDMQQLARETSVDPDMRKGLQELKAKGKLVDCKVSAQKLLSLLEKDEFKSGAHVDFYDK

SMILES | IC50 [nM]
CC(C)(C)Cn1c(=O)c(C(=O)NC2CC2)c(O)n2nc(N)cc12 [Synthesis Example 4, 2-Amino-N-cyclopropyl-7-hydroxy-4-neopentyl-5-oxo-4,5-dihydropyrazolo[1,5-a]pyrimidine-6-carboxamide hydrochloride] | 0.9

same assay, conditions: Evaluation Example 2, seven concentrations 0.14 nM to 100 nM, 240 minutes at room temperature, read-out: IC50

SMILES | IC50 [nM]
COc1ccc2c(n1)nn1c(O)c(C(=O)NC3CC3)c(=O)n(CC(C)(C)C)c21 [Synthesis Example 393, N-Cyclopropyl-4-hydroxy-8-methoxy-1-neopentyl-2-oxo-1,2-dihydropyrido[2′,3′:3,4]pyrazolo[1,5-a]pyrimidine-3-carboxamide] | 1.38
Cc1cc(CNC(=O)c2cnn3c(O)c(C(=O)NC4CC4)c(=O)n(CC(C)C)c23)n(C)n1 [Synthesis Example 229, N6-Cyclopropyl-N3-((1,3-dimethyl-1H-pyrazol-5-yl)methyl)-7-hydroxy-4-isobutyl-5-oxo-4,5-dihydropyrazolo[1,5-a]pyrimidine-3,6-dicarboxamide] | 0.85
Cc1nn2c(O)c(C(=O)NC3CC3)c(=O)n(CC(C)C)c2c1/C=C/C(=O)N1CCC2CC21 (racemic) [compound 609, (E)-3-(3-(2-Azabicyclo[3.1.0]hexan-2-yl)-3-oxoprop-1-en-1-yl)-N-cyclopropyl-7-hydroxy-4-isobutyl-2-methyl-5-oxo-4,5-dihydropyrazolo[1,5-a]pyrimidine-6-carboxamide (racemate)] | 1.23
CC(C)Cn1c(=O)c(C(=O)NC2CC2)c(O)n2ncc(/C=C/C(=O)N3CC[C@H](F)C3)c12 [compound 454, (S,E)-N-Cyclopropyl-3-(3-(3-fluoropyrrolidin-1-yl)-3-oxoprop-1-en-1-yl)-7-hydroxy-4-isobutyl-5-oxo-4,5-dihydropyrazolo[1,5-a]pyrimidine-6-carboxamide] | 0.75
Cc1nn2c(O)c(C(=O)NC3CC3)c(=O)n(CC(C)C)c2c1/C=C/C(=O)N1CCOc2cnccc21 [Synthesis Example 675, (E)-N-Cyclopropyl-3-(3-(2,3-dihydro-1H-pyrido[3,4-b][1,4]oxazin-1-yl)-3-oxoprop-1-en-1-yl)-7-hydroxy-4-isobutyl-2-methyl-5-oxo-4,5-dihydropyrazolo[1,5-a]pyrimidine-6-carboxamide] | 0.99
CC(=O)N1CCC2(CCCN2C(=O)/C=C/c2c(C)nn3c(O)c(C(=O)NC4CC4)c(=O)n(CC(C)C)c23)CC1 [Synthesis Example 665, (E)-3-(3-(8-Acetyl-1,8-diazaspiro[4.5]decan-1-yl)-3-oxoprop-1-en-1-yl)-N-cyclopropyl-7-hydroxy-4-isobutyl-2-methyl-5-oxo-4,5-dihydropyrazolo[1,5-a]pyrimidine-6-carboxamide] | 0.92
COc1cnc(-c2cc3n(CC(C)(C)C)c(=O)c(C(=O)NC4CC4)c(O)n3n2)cn1 [Synthesis Example 300, N-Cyclopropyl-7-hydroxy-2-(5-methoxypyrazin-2-yl)-4-neopentyl-5-oxo-4,5-dihydropyrazolo[1,5-a]pyrimidine-6-carboxamide] | 9.44
CC(C)Cn1c(=O)c(C(=O)NC2CC2)c(O)n2ncc(/C=C/C(=O)N3CCCCCO3)c12 [compound 543, (E)-3-(3-(1,2-Oxazepan-2-yl)-3-oxoprop-1-en-1-yl)-N-cyclopropyl-7-hydroxy-4-isobutyl-5-oxo-4,5-dihydropyrazolo[1,5-a]pyrimidine-6-carboxamide] | 0.97
CC(C)Cn1c(=O)c(C(=O)NC2CC2)c(O)n2ncc(/C=C/C(=O)N3CCC(C(F)(F)F)C3)c12 (racemic) [compound 595, (E)-N-Cyclopropyl-7-hydroxy-4-isobutyl-5-oxo-3-(3-oxo-3-(3-(trifluoromethyl)pyrrolidin-1-yl)prop-1-en-1-yl)-4,5-dihydropyrazolo[1,5-a]pyrimidine-6-carboxamide (racemate)] | 1.54
CC(C)Cn1c(=O)c(C(=O)NC2CC2)c(O)n2ncc(/C=C/C(=O)N3CCOC[C@H]3c3ccccc3)c12 [compound 602, (R,E)-N-Cyclopropyl-7-hydroxy-4-isobutyl-5-oxo-3-(3-oxo-3-(3-phenylmorpholino)prop-1-en-1-yl)-4,5-dihydropyrazolo[1,5-a]pyrimidine-6-carboxamide] | 1.14
COC[C@@H]1CCCN1C(=O)/C=C/c1cnn2c(O)c(C(=O)NC3CC3)c(=O)n(CC(C)C)c12 [compound 549, (S,E)-N-Cyclopropyl-7-hydroxy-4-isobutyl-3-(3-(2-(methoxymethyl)pyrrolidine-1-yl)-3-oxoprop-1-en-1-yl)-5-oxo-4,5-dihydropyrazolo[1,5-a]pyrimidine-6-carboxamide] | 0.73
CC(C)Cn1c(=O)c(C(=O)NC2CC2)c(O)n2nc(C(N)=O)c(/C=C/C(=O)N3CCOCC3)c12 [compound 450, (E)-N6-Cyclopropyl-7-hydroxy-4-isobutyl-3-(3-morpholino-3-oxoprop-1-en-1-yl)-5-oxo-4,5-dihydropyrazolo[1,5-a]pyrimidine-2,6-dicarboxamide] | 0.6
CO[C@@H]1CCN(C(=O)/C=C/c2c(C)nn3c(O)c(C(=O)NC4CC4)c(=O)n(CC(C)C)c23)C1 [compound 578, (R,E)-N-Cyclopropyl-7-hydroxy-4-isobutyl-3-(3-(3-methoxypyrrolidin-1-yl)-3-oxoprop-1-en-1-yl)-2-methyl-5-oxo-4,5-dihydropyrazolo[1,5-a]pyrimidine-6-carboxamide] | 0.9
CC(C)(C)Cn1c(=O)c(C(=O)NC2CC2)c(O)n2nc3[nH]ccc3c12 [Synthesis Example 395, N-Cyclopropyl-7-hydroxy-4-neopentyl-5-oxo-4,5-dihydro-1H-pyrrolo[2′,3′:3,4]pyrazolo[1,5-a]pyrimidine-6-carboxamide] | 0.89
CCc1nn2c(O)c(C(=O)NC3CC3)c(=O)n(CC(C)C)c2c1/C=C/C(=O)N1[C@@H](C)COC[C@@H]1C [Synthesis Example 626, N-Cyclopropyl-3-((E)-3-((3S,5S)-3,5-dimethylmorpholino)-3-oxoprop-1-en-1-yl)-2-ethyl-7-hydroxy-4-isobutyl-5-oxo-4,5-dihydropyrazolo[1,5-a]pyrimidine-6-carboxamide] | 0.87
CCOc1cnc(Nc2cc3n(CC(C)(C)C)c(=O)c(C(=O)NC4CC4)c(O)n3n2)cn1 [Synthesis Example 338, N-Cyclopropyl-2-((5-ethoxypyrazin-2-yl)amino)-7-hydroxy-4-neopentyl-5-oxo-4,5-dihydropyrazolo[1,5-a]pyrimidine-6-carboxamide] | 2.73
Cc1nn2c(O)c(C(=O)NC3CC3)c(=O)n(CC(C)C)c2c1/C=C/C(=O)N1CCC[C@@H]1C(C)(C)O [compound 611, (R,E)-N-Cyclopropyl-7-hydroxy-3-(3-(2-(2-hydroxypropan-2-yl)pyrrolidin-1-yl)-3-oxoprop-1-en-1-yl)-4-isobutyl-2-methyl-5-oxo-4,5-dihydropyrazolo[1,5-a]pyrimidine-6-carboxamide] | 1.22
CC(C)Cn1c(=O)c(C(=O)NC2CC2)c(O)n2nc(C(N)=O)c(/C=C/C3CCOCC3)c12 [compound 451, (E)-N6-Cyclopropyl-7-hydroxy-4-isobutyl-5-oxo-3-(2-(tetrahydro-2H-pyran-4-yl)vinyl)-4,5-dihydropyrazolo[1,5-a]pyrimidine-2,6-dicarboxamide] | 0.69
CC(C)Cn1c(=O)c(C(=O)NC2CC2)c(O)n2ncc(/C=C/C(=O)NCC(C)(C)O)c12 [compound 507, (E)-N-Cyclopropyl-7-hydroxy-3-(3-((2-hydroxy-2-methylpropyl)amino)-3-oxoprop-1-en-1-yl)-4-isobutyl-5-oxo-4,5-dihydropyrazolo[1,5-a]pyrimidine-6-carboxamide] | 1.13
C[C@H]1COCCN1C(=O)/C=C/c1cnn2c(O)c(C(=O)NC3CC3)c(=O)n(CC3(C)CC3)c12 [Synthesis Example 369, (S,E)-N-Cyclopropyl-7-hydroxy-4-((1-methylcyclopropyl)methyl)-3-(3-(3-methylmorpholino)-3-oxoprop-1-en-1-yl)-5-oxo-4,5-dihydropyrazolo[1,5-a]pyrimidine-6-carboxamide] | 0.58

same assay, conditions: sepiapterin absorbance, Table 41, read-out: concentration at 50% inhibition of human SPR (IC50)

SMILES | IC50 [nM]
CC(C)Cn1c(=O)c(C(=O)NC2CC2)c(O)n2ncc(/C=C/C(=O)N3C[C@H](C)OC[C@H]3C)c12 [Synthesis Example 718, N-Cyclopropyl-3-((E)-3-((2S,5R)-2,5-dimethylmorpholino)-3-oxoprop-1-en-1-yl)-7-hydroxy-4-isobutyl-5-oxo-4,5-dihydropyrazolo[1,5-a]pyrimidine-6-carboxamide] | 0.74
CC(C)Cn1c(=O)c(C(=O)NC2CC2)c(O)n2ncc(/C=C/C(=O)N3CCCC34CCN(C(C)C)CC4)c12 [Synthesis Example 746, (E)-N-Cyclopropyl-7-hydroxy-4-isobutyl-3-(3-(8-isopropyl-1,8-diazaspiro[4.5]decan-1-yl)-3-oxoprop-1-en-1-yl)-5-oxo-4,5-dihydropyrazolo[1,5-a]pyrimidine-6-carboxamide] | 1.54
CC(C)Cn1c(=O)c(C(=O)NC2CC2)c(O)n2ncc(/C=C/C(=O)N3CCOc4ncccc43)c12 [Synthesis Example 729, (E)-N-Cyclopropyl-3-(3-(2,3-dihydro-1H-pyrido[2,3-b][1,4]oxazin-1-yl)-3-oxoprop-1-en-1-yl)-7-hydroxy-4-isobutyl-5-oxo-4,5-dihydropyrazolo[1,5-a]pyrimidine-6-carboxamide] | 1.05
CC(C)Cn1c(=O)c(C(=O)NC2CC2)c(O)n2ncc(/C=C/C(=O)N3CCC[C@H]3C(C)(C)O)c12 [Synthesis Example 730, (S,E)-N-Cyclopropyl-7-hydroxy-3-(3-(2-(2-hydroxypropan-2-yl)pyrrolidin-1-yl)-3-oxoprop-1-en-1-yl)-4-isobutyl-5-oxo-4,5-dihydropyrazolo[1,5-a]pyrimidine-6-carboxamide] | 1.26
